Test results published in paper PMC10046369, “Low-Affinity/High-Selectivity Dopamine Transport Inhibition Sufficient to Rescue Cognitive Functions in the Aging Rat” (Biomolecules, 2023).

Columns and labels:
Assay in all cases: biochemical
Parameters in all cases: KINOMEscan competition binding panel, per cent of control
Details in all cases: read-out: %Ctrl @ 2800nM
[1] = target: T1, ABL1(F317L)-nonphosphorylated (Homo sapiens, UniProt P00519, F317L)
T1 construct: nonphosphorylated
How it was run: (§1)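 Values are expressed as percent of control, calculated as ((test − positive control)/(negative control − positive control)) × 100, so lower numbers mean stronger hits. Binding was measured by KINOMEscan competition assay in a 450-kinase human panel including disease mutants, using the contractor's validated protocol.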

PAK2 = PAK2 (Homo sapiens, UniProt Q13177)
How it was run: as §1

MYO3A = MYO3A (Homo sapiens, UniProt Q8NEV4)
How it was run: as §1

SIK = target: T2, SIK (Homo sapiens, UniProt P57059)
T2 construct: gene SIK1
How it was run: as §1

IRAK3 = IRAK3 (Homo sapiens, UniProt Q9Y616)
How it was run: as §1

FLT3(ITD,F691L) = FLT3(ITD,F691L) (Homo sapiens, UniProt P36888, F691L/ITD)
How it was run: as §1

MAP4K5 = MAP4K5 (Homo sapiens, UniProt Q9Y4K4)
How it was run: as §1

IKK-beta = target: T3, IKK-beta (Homo sapiens, UniProt O14920)
T3 construct: gene IKBKB
How it was run: as §1

EPHA6 = EPHA6 (Homo sapiens, UniProt Q9UF33)
How it was run: as §1

NEK3 = NEK3 (Homo sapiens, UniProt P51956)
How it was run: as §1

TBK1 = TBK1 (Homo sapiens, UniProt Q9UHD2)
How it was run: as §1

AMPK-alpha2 = target: T4, AMPK-alpha2 (Homo sapiens, UniProt P54646)
T4 construct: gene PRKAA2
How it was run: as §1

FGFR3(G697C) = FGFR3(G697C) (Homo sapiens, UniProt P22607, G697C)
How it was run: as §1

ACVR1B = ACVR1B (Homo sapiens, UniProt P36896)
How it was run: as §1

CDK4-cyclinD3 = target: T5, CDK4-cyclinD3 (Homo sapiens, UniProt P11802)
T5 construct: cyclinD3
How it was run: as §1

[2] = target: T6, RPS6KA4(Kin.Dom.2-C-terminal) (Homo sapiens, UniProt O75676)
T6 construct: Kin.Dom.2-C-terminal
How it was run: as §1

MEK6 = target: T7, MEK6 (Homo sapiens, UniProt P52564)
T7 construct: gene MAP2K6
How it was run: as §1

EGFR(G719C) = EGFR(G719C) (Homo sapiens, UniProt P00533, G719C)
How it was run: as §1

SGK2 = SGK2 (Homo sapiens, UniProt Q9HBY8)
How it was run: as §1

MAP4K2 = MAP4K2 (Homo sapiens, UniProt Q12851)
How it was run: as §1

CAMKK2 = CAMKK2 (Homo sapiens, UniProt Q96RR4)
How it was run: as §1

CDC2L2 = target: T8, CDC2L2 (Homo sapiens, UniProt Q9UQ88)
T8 construct: gene CDK11A
How it was run: as §1

DRAK1 = target: T9, DRAK1 (Homo sapiens, UniProt Q9UEE5)
T9 construct: gene STK17A
How it was run: as §1

JNK1 = target: T10, JNK1 (Homo sapiens, UniProt P45983)
T10 construct: gene MAPK8
How it was run: as §1

HIPK1 = HIPK1 (Homo sapiens, UniProt Q86Z02)
How it was run: as §1

DMPK2 = target: T11, DMPK2 (Homo sapiens, UniProt Q6DT37)
T11 construct: gene CDC42BPG
How it was run: as §1

MYO3A, sequence (Q8NEV4 whole entry): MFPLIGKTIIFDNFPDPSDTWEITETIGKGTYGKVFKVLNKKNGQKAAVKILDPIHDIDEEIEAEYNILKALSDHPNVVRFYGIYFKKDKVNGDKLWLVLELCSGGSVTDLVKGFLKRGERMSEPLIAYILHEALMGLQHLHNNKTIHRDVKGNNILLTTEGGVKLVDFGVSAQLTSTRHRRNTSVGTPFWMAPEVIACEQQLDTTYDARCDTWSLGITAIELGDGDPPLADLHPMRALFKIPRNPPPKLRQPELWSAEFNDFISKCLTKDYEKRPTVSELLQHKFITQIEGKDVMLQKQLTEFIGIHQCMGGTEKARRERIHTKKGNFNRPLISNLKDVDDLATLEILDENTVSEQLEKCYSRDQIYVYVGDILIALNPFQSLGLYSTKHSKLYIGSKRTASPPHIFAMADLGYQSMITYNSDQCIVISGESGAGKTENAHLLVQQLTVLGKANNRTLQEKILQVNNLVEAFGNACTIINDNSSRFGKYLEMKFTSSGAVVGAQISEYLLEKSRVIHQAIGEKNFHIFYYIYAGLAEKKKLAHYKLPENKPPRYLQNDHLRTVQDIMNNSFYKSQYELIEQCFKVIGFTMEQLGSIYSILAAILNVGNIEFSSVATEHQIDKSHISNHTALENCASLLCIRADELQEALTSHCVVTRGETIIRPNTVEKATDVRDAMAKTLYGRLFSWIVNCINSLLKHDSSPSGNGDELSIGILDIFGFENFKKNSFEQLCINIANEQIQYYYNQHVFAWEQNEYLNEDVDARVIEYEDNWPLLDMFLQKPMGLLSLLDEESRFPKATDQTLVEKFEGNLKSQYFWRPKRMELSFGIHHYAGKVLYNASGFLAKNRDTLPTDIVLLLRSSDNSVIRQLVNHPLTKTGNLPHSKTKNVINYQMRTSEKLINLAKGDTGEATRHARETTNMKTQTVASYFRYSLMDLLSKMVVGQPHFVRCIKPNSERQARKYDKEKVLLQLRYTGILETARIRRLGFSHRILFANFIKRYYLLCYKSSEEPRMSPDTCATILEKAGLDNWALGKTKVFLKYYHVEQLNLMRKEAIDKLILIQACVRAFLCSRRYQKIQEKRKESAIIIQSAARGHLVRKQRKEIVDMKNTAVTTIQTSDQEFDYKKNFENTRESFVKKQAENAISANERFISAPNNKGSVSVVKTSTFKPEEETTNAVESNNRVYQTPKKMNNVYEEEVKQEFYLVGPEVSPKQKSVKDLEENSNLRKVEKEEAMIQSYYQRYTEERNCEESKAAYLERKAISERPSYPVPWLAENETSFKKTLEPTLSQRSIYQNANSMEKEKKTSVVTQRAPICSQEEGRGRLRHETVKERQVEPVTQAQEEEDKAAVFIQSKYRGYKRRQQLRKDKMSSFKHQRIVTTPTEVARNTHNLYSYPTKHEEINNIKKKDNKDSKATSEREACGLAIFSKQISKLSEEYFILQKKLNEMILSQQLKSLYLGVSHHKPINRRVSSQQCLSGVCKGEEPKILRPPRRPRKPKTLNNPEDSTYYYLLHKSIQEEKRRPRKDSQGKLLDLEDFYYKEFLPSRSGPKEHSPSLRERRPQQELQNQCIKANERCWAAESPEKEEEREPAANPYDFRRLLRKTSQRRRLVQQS
MAP4K2, sequence (Q12851 whole entry): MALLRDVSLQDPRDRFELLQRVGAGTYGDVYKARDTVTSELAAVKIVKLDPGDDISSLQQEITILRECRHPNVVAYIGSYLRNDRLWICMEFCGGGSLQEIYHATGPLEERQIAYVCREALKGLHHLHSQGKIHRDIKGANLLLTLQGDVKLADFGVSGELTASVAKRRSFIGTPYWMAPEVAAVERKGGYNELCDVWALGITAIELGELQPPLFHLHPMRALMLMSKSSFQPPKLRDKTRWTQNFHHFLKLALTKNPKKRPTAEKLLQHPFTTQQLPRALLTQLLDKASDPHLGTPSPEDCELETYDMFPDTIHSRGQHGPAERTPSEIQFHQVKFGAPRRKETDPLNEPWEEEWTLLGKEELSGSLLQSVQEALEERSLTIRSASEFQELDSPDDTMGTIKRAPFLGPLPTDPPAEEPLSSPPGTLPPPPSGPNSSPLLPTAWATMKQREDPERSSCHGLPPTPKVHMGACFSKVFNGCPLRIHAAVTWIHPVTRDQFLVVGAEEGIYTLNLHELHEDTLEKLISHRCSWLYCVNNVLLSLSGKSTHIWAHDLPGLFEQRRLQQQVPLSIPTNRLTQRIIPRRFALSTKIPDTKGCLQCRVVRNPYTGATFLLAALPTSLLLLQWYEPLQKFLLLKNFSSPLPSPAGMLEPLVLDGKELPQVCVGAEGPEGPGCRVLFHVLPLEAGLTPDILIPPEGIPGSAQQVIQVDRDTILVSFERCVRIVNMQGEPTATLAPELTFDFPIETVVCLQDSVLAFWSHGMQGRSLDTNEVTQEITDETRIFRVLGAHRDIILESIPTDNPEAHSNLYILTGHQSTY
ACVR1B, sequence (P36896 whole entry): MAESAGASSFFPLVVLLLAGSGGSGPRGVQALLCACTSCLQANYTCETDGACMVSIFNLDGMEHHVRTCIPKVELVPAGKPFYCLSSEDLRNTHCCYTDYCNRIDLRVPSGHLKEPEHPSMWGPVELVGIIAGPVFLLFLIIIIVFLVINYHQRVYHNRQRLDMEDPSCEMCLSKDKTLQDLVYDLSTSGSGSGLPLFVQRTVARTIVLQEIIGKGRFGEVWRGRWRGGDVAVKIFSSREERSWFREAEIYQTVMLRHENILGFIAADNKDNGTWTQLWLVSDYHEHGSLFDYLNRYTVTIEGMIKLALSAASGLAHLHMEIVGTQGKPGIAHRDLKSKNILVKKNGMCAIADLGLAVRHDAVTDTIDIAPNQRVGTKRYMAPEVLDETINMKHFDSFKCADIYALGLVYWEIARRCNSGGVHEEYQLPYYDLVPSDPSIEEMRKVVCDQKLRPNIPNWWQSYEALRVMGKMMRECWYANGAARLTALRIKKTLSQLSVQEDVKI
SGK2, sequence (Q9HBY8 whole entry): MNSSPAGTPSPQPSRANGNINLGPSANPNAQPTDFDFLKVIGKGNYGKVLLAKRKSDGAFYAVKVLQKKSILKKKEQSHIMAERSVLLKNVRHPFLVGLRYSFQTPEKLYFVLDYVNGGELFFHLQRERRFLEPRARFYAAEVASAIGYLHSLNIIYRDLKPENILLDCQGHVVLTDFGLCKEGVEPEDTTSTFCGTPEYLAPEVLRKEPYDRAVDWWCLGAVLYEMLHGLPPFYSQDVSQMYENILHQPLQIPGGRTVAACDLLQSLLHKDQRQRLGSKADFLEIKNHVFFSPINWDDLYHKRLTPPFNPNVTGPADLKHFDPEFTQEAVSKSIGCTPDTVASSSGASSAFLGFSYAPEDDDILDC
HIPK1, sequence (Q86Z02 whole entry): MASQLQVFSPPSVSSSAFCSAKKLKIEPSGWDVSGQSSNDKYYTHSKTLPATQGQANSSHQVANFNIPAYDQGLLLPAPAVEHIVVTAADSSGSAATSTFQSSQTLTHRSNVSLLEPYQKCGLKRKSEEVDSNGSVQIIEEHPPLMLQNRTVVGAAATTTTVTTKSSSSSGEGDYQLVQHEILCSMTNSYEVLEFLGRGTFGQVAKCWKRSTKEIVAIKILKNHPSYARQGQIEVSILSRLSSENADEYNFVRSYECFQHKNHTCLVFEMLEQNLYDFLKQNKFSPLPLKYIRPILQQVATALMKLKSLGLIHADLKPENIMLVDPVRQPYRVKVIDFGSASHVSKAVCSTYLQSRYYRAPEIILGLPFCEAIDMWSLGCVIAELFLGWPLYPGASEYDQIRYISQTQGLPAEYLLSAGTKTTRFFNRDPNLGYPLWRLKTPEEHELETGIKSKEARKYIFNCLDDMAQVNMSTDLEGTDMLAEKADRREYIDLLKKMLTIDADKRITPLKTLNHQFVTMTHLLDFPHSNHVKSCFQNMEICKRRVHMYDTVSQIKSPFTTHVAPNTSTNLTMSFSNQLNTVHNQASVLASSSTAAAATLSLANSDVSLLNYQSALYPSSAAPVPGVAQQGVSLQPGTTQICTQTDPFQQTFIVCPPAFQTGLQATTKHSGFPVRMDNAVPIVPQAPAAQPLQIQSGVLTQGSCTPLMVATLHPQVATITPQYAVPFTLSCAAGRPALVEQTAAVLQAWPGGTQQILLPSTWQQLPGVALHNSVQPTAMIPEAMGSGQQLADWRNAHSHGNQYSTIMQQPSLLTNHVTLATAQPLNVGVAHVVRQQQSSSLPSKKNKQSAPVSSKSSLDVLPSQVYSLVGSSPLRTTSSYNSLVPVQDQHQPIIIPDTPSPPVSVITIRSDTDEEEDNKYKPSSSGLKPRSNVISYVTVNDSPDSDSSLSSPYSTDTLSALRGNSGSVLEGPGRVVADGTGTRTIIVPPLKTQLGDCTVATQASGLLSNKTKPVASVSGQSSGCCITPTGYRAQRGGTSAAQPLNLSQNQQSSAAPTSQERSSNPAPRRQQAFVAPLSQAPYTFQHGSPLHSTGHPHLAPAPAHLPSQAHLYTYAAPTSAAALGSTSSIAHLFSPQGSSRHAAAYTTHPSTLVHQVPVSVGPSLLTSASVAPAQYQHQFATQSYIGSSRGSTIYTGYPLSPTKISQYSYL
T9 sequence (Q9UEE5 whole entry): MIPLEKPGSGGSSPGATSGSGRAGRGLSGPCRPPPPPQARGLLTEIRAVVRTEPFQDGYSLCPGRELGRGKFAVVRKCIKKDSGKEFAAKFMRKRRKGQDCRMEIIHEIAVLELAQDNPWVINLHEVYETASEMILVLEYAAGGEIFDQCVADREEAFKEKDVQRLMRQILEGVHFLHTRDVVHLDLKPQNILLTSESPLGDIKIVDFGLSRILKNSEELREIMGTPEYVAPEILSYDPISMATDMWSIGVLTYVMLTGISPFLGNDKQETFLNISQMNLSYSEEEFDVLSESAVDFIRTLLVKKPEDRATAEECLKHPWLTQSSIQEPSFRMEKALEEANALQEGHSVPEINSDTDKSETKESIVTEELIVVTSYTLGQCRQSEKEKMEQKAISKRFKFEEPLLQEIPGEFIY

## [O-][S@@+](Cc1cncs1)C(c1ccccc1)c1ccccc1 [S-CE-123, (S)-5-((Benzhydrylsulfinyl)Methyl)Thiazole]
[1]
  remaining binding at 2.8 µM: 100%
PAK2
  remaining binding at 2.8 µM: 77%
MYO3A
  remaining binding at 2.8 µM: 96%
SIK
  remaining binding at 2.8 µM: 100%
IRAK3
  remaining binding at 2.8 µM: 96%
FLT3(ITD,F691L)
  remaining binding at 2.8 µM: 50%
MAP4K5
  remaining binding at 2.8 µM: 95%
IKK-beta
  remaining binding at 2.8 µM: 96%
EPHA6
  remaining binding at 2.8 µM: 100%
NEK3
  remaining binding at 2.8 µM: 100%
TBK1
  remaining binding at 2.8 µM: 100%
AMPK-alpha2
  remaining binding at 2.8 µM: 97%
FGFR3(G697C)
  remaining binding at 2.8 µM: 96%
ACVR1B
  remaining binding at 2.8 µM: 100%
CDK4-cyclinD3
  remaining binding at 2.8 µM: 85%
[2]
  remaining binding at 2.8 µM: 99%
MEK6
  remaining binding at 2.8 µM: 89%
EGFR(G719C)
  remaining binding at 2.8 µM: 74%
SGK2
  remaining binding at 2.8 µM: 100%
MAP4K2
  remaining binding at 2.8 µM: 100%
CAMKK2
  remaining binding at 2.8 µM: 94%
CDC2L2
  remaining binding at 2.8 µM: 98%
DRAK1
  remaining binding at 2.8 µM: 95%
JNK1
  remaining binding at 2.8 µM: 67%
HIPK1
  remaining binding at 2.8 µM: 90%
DMPK2
  remaining binding at 2.8 µM: 88%
